Results: patent US20110257168A1, “DERIVATIVES OF OXABISPIDINE AS NEURONAL NICOTINIC ACETYLCHOLINE RECEPTOR LIGANDS” (Targacept, Inc., priority 2008, published 2011)
Read-outs that look alike come from different tables or passages of the source.

How the values were obtained:
human α4β2 = human α4β2 (Homo sapiens, UniProt P17787+P43681); assay: Competition binding to human α4β2 receptors in membrane preparations
Protocol: (§1) SH-EP1/human α4β2 (Eaton et al., 2003), SH-EP1/human α4β4 (Gentry et al., 2003), SH-EP1/α6β3β4α5 (Grinevich et al., 2005), TE671/RD and SH-SY5Y cell lines (obtained from Dr. Ron Lukas, Barrow Neurological Institute) were maintained in proliferative growth phase in Dulbecco's modified Eagle's medium (Gibco/BRL) with 10% horse serum (Gibco BRL), 5% fetal bovine serum (HyClone, Logan Utah), 1 mM sodium pyruvate, 4 mM L-glutamine. For maintenance of stable transfectants, the α4β2 and α4β4 cell media was supplemented with 0.25 mg/mL zeocin and 0.13 mg/mL hygromycin B. Selection was maintained for the α6β3β4α5 cells with 0.25 mg/mL of zeocin, 0.13 mg/mL of hygromycin B, 0.4 mg/mL of geneticin, and 0.2 mg/mL of blasticidin. HEK/human α7/RIC3 cells (obtained from J. Lindstrom, U. Pennsylvania) were maintained in proliferative growth phase in Dulbecco's modified Eagle's medium (Gibco/BRL) with 10% fetal bovine serum (HyClone, Logan Utah), 1 mM sodium pyruvate, 4 mM L-glutamine, 0.4 mg/mL geneticin; 0.2 mg/ml hygromycin B.
(§2) Preparation of membranes from rat tissues. Rat cortices were obtained from Analytical Biological Services, Incorporated (ABS, Wilmington, Del.). Tissues were dissected from female Sprague-Dawley rats, frozen and shipped on dry ice. Tissues were stored at −20° C. until needed for membrane preparation. Cortices from 10 rats were pooled and homogenized by Polytron (Kinematica GmbH, Switzerland) in 10 volumes (weight:volume) of ice-cold preparative buffer (KCl, 11 mM; KH2PO4, 6 mM; NaCl 137 mM; Na2HPO4 8 mM; HEPES (free acid), 20 mM; iodoacetamide, 5 mM; EDTA, 1.5 mM; 0.1 mM PMSF pH 7.4). The resulting homogenate was centrifuged at 40,000 g for 20 minutes at 4° C. and the resulting pellet was resuspended in 20 volumes of ice-cold water. After 60-minute incubation at 4° C., a new pellet was collected by centrifugation at 40,000 g for 20 minutes at 4° C. The final pellet was resuspended in preparative buffer and stored at −20° C. On the day of the assay, tissue was thawed, centrifuged at 40,000 g for 20 minutes and then resuspended in PBS (Dulbecco's Phosphate Buffered Saline, Life Technologies, pH 7.4) to a final concentration of 2-3 mg protein/mL. Protein concentrations were determined using the Pierce BCA Protein Assay kit (Pierce Biotechnology, Rockford, Ill.), with bovine serum albumin as the standard. Preparation of membranes from clonal cell lines. Cells were harvested in ice-cold PBS, pH 7.4, then homogenized with a polytron (Brinkmann Instruments, Westbury, N.Y.). Homogenates were centrifuged at 40,000 g for 20 minutes (4° C.). The pellet was resuspended in PBS and protein concentration determined using the Pierce BCA Protein Assay kit (Pierce Biotechnology, Rockford, Ill.).
(§3) Competition binding to receptors in membrane preparations. Binding to nicotinic receptors was assayed on membranes using standard methods adapted from published procedures (Lippiello and Fernandes, 1986; Davies et al., 1999). In brief, membranes were reconstituted from frozen stocks (approximately 0.2 mg protein) and incubated for 2 h on ice in […] assay buffer (PBS) in the presence of competitor compound (0.001 nM to […]) and radioligand. [^3H]-nicotine (L-(−)-[N-methyl-3H]-nicotine, 69.5 Ci/mmol, Perkin-Elmer Life Sciences) was used for human α4β2 binding studies. [^3H]-epibatidine (52 Ci/mmol, Perkin-Elmer Life Sciences) was used for binding studies at the other receptor subtypes. Incubation was terminated by rapid filtration on a multimanifold tissue harvester (Brandel, Gaithersburg, Md.) using GF/B filters presoaked in 0.33% polyethyleneimine (w/v) to reduce non-specific binding. Filters were washed 3 times and the radioactivity retained was determined by liquid scintillation counting.
(§4) Binding data analysis. Binding data were expressed as percent total control binding. Replicates for each point were averaged and plotted against the log of drug concentration. […]

Human α7 = biological target: T1, Human α7 (Homo sapiens, UniProt P36544); assay: Competition binding to human α7 receptors in membrane preparations
T1 construct: host or cells: HEK cells co-expressing RIC3
Protocol: as §1, §2, §3, §4

Rat α4β2 = biological target: T2, Rat α4β2 (Rattus norvegicus, UniProt P09483+P12390); assay: Competition binding to rat α4β2 receptors in membrane preparations
T2 construct: Preparation of membranes from rat tissues; Rat cortices were obtained from Analytical Biological Services; tissue Analytical Biological Services, Incorporated (ABS, Wilmington, Del.); host or cells: rat cortex membranes (female Sprague-Dawley)
Protocol: as §2, §3
Binding data analysis. Binding data were expressed as percent total control binding. Replicates for each point were averaged and plotted against the log of drug concentration. The IC50 (concentration of the compound that produces 50% inhibition of binding) was determined by least squares non-linear regression using GraphPad Prism software (GraphPAD, San Diego, Calif.). Ki was calculated using the Cheng-Prusoff equation (Cheng and Prusoff, 1973).

[1] = membranes, [3H]-nicotine competition, Ki by Cheng-Prusoff, read-out: human α4β2 Ki
[2] = membranes, [3H]-epibatidine competition, Ki by Cheng-Prusoff, read-out: Human α7 Ki
[3] = membranes, [3H]-epibatidine competition, Ki by Cheng-Prusoff, read-out: Rat α4β2 Ki

SMILES | Ki (human α4β2; [1]) | Ki (Rat α4β2; [3]) | other results
CN1CC2CN(c3cnc(Br)nc3)CC(C1)O2 [3-(2-bromopyrimidin-5-yl)-7-methyl-9-oxa-3,7-diazabicyclo[3.3.1]nonane] | 2000 nM |  | 
FC1(F)Oc2ccc(N3CC4CNCC(C3)O4)cc2O1 [3-(2,2-difluorobenzo[d][1,3]dioxol-5-yl)-9-oxa-3,7-diazabicyclo[3.3.1]nonane] | 700 nM |  | Ki (Human α7; [2]): 90000 nM
Cc1ccc(N2CC3CNCC(C2)O3)cn1 [3-(6-methylpyridin-3-yl)-9-oxa-3,7-diazabicydo[3.3.1]nonane] |  | 30 nM | Ki (human α4β2): 4.9 nM; Ki (Human α7; [2]): 600 nM
FC(F)Oc1cc(N2CC3CNCC(C2)O3)cnc1Cl [3-(6-chloro-5-(difluoromethoxy)pyridin-3-yl)-9-oxa-3,7-diazabicyclo[3.3.1]nonane] | 0.16 nM |  | Ki (Rat α4β2): 0.08 nM; Ki (Human α7; [2]): 560 nM
CN1CC2CN(c3ccc(Cl)nn3)CC(C1)O2 [3-(6-chloropyridazin-3-yl)-7-methyl-9-oxa-3,7-diazabicyclo[3.3.1]nonane] | 29000 nM |  | 
Clc1ccccc1Oc1cncc(N2CC3CNCC(C2)O3)c1 [3-(5-(2-chlorophenoxy)pyridin-3-yl)-9-oxa-3,7-diazabicyclo[3.3.1]nonane] |  | 14 nM | Ki (human α4β2): 3.6 nM; Ki (Human α7; [2]): 430 nM
COc1ccc(N2CC3CNCC(C2)O3)cn1 [3-(6-methoxypyridin-3-yl)-9-oxa-3,7-diazabicyclo[3.3.1]nonane] | 200 nM |  | 
CN1CC2CN(c3cncc(Cl)c3)CC(C1)O2 [3-(5-chloropyridin-3-yl)-7-methyl-9-oxa-3,7-diazabicyclo[3.3.1]nonane] | 77 nM | 1600 nM | 
COc1cccc(N2CC3CN(C)CC(C2)O3)c1 [3-(3-methoxyphenyl)-7-methyl-9-oxa-3,7-diazabicyclo[3.3.1]nonane] | 1600 nM |  | 
Clc1ncc(N2CC3CNCC(C2)O3)cc1C1CC1 [3-(5-cyclopropyl-6-chloropyridin-3-yl)-9-oxa-3,7-diazabicyclo[3.3.1]nonane] | 0.18 nM |  | Ki (Rat α4β2): 14 nM; Ki (Human α7): 87 nM
FCCCCOc1cc(N2CC3CNCC(C2)O3)cnc1Cl [3-(5-(4-fluorobutoxy)-6-chloropyridin-3-yl)-9-oxa-3,7-diazabicyclo[3.3.1]nonane] | 0.3 nM |  | Ki (Rat α4β2): 0.35 nM; Ki (Human α7; [2]): 1500 nM
Clc1cccc(N2CC3CNCC(C2)O3)c1Cl [3-(2,3-dichlorophenyl)-9-oxa-3,7-diazabicyclo[3.3.1]nonane] | 9600 nM |  | 
COc1ccncc1N1CC2CNCC(C1)O2 [3-(4-methoxypyridin-3-yl)-9-oxa-3,7-diazabicyclo[3.3.1]nonane] | 120 nM | 580 nM | 
CN1CC2CN(c3cc(F)cc(F)c3)CC(C1)O2 [3-(3,5-difluorophenyl)-7-methyl-9-oxa-3,7-diazabicyclo[3.3.1]nonane] | 86 nM | 510 nM | 
Brc1cncc(N2CC3CNCC(C2)O3)c1 [3-(5-bromopyridin-3-yl)-9-oxa-3,7-diazabicydo[3.3.1]nonane] | 2.1 nM |  | Ki (Rat α4β2): 2.7 nM
CN1CC2CN(c3cccc(Cl)c3Cl)CC(C1)O2 | 5200 nM |  | 
N#Cc1ccncc1N1CC2CNCC(C1)O2 [3-(4-cyanopyridin-3-yl)-9-oxa-3,7-diazabicyclo[3.3.1]nonane] | 860 nM |  | 
c1ccc(N2CC3CNCC(C2)O3)nc1 [3-(pyridin-2-yl)-9-oxa-3,7-diazabicyclo[3.3.1]nonane] | 100 nM | 350 nM | 

SMILES | Ki (human α4β2; [1]) | Ki (Rat α4β2; [3]) | other results
CN1CC2CN(c3cncc(Oc4ccc(Cl)c(Cl)c4)c3)CC(C1)O2 [3-(5-(3,4-dichlorophenoxy)pyridin-3-yl)-7-methyl-9-oxa-3,7-diazabicyclo[3.3.1]nonane] | 62 nM | 400 nM | 
CN1CC2CN(c3cncc(Oc4ccccc4Cl)c3)CC(C1)O2 [3-(5-(2-chlorophenoxy)pyridin-3-yl)-7-methyl-9-oxa-3,7-diazabicyclo[3.3.1]nonane] | 84 nM | 1200 nM | 
CN1CC2CN(c3ccc(F)nc3)CC(C1)O2 [3-(6-fluoropyridin-3-yl)-7-methyl-9-oxa-3,7-diazabicyclo[3.3.1]nonane] | 140 nM | 1100 nM | 
CN1CC2CN(c3cnccc3Cl)CC(C1)O2 [3-(4-chloropyridin-3-yl)-7-methyl-9-oxa-3,7-diazabicyclo[3.3.1]nonane] | 180 nM |  | 
c1ccc(-c2ccc(N3CC4CNCC(C3)O4)nn2)cc1 [3-(6-phenylpyridazin-3-yl)-9-oxa-3,7-diazabicyclo[3.3.1]nonane] | 380 nM |  | 
Fc1cccc(N2CC3CNCC(C2)O3)c1F [3-(2,3-difluorophenyl)-9-oxa-3,7-diazabicyclo[3.3.1]nonane] | 260 nM |  | 
CN1CC2CN(c3ccc(Cl)nc3)CC(C1)O2 [3-(6-chloropyridin-3-yl)-7-methyl-9-oxa-3,7-diazabicyclo[3.3.1]nonane] | 120 nM | 1800 nM | 
CN(C)c1ccc(N2CC3CNCC(C2)O3)cn1 [3-(6-dimethylaminopyridin-3-yl)-9-oxa-3,7-diazabicyclo[3.3.1]nonane] | 1200 nM |  | 
CN1CC2CN(c3cncnc3)CC(C1)O2 [3-(pyrimidin-5-yl)-7-methyl-9-oxa-3,7-diazabicyclo[3.3.1]nonane] | 270 nM |  | 
CN1CC2CN(c3ccc(C(F)(F)F)nc3)CC(C1)O2 [3-(6-trifluoromethyl-pyridin-3-yl)-7-methyl-9-oxa-3,7-diazabicyclo[3.3.1]nonane] | 1000 nM |  | 
CN1CC2CN(c3cncc(C#N)c3)CC(C1)O2 [3-(5-cyanopyridin-3-yl)-7-methyl-9-oxa-3,7-diazabicyclo[3.3.1]nonane] | 260 nM |  | 
Clc1ccncc1N1CC2CNCC(C1)O2 [3-(4-chloropyridin-3-yl)-9-oxa-3,7-diazabicydo[3.3.1]nonane] | 250 nM |  | 
CN1CC2CN(c3cnc(Cl)c(Cl)c3)CC(C1)O2 [3-methyl-7-(5,6-dichloropyridin-3-yl)-9-oxa-3,7-diazabicyclo[3.3.1]nonane] | 24 nM |  | Ki (Rat α4β2): 33 nM
[O-][n+]1cc(F)cc(N2CC3CNCC(C2)O3)c1 [3-(5-fluoro-pyridine-1-oxide-3-yl)-9-oxa-3,7-diazabicyclo[3.3.1]nonane] | 590 nM |  | Ki (Human α7; [2]): 54000 nM
Cc1ccc(N2CC3CN(C)CC(C2)O3)cn1 [3-(6-methylpyridin-3-yl)-7-methyl-9-oxa-3,7-diazabicyclo[3.3.1]nonane] | 150 nM | 1700 nM | 
Fc1cc(F)cc(N2CC3CNCC(C2)O3)c1 [3-(3,5-difluorophenyl)-9-oxa-3,7-diazabicyclo[3.3.1]nonane] | 27 nM |  | Ki (Rat α4β2): 97 nM
COc1cc(N2CC3CNCC(C2)O3)cnc1Cl [3-(5-methoxy-6-chloropyridin-3-yl)-9-oxa-3,7-diazabicyclo[3.3.1]nonane] | 0.4 nM |  | Ki (Rat α4β2): 1 nM
